This is an account of results in patent publication US7420001B2 (Wyeth, priority 2003, dated 2008).

One test concerns the target T1, MMP-2 (Homo sapiens, UniProt P08253).
T1 construct: purchased Oncogene Research Products (Calbiochem) PF023
T1 sequence (P08253 110-660): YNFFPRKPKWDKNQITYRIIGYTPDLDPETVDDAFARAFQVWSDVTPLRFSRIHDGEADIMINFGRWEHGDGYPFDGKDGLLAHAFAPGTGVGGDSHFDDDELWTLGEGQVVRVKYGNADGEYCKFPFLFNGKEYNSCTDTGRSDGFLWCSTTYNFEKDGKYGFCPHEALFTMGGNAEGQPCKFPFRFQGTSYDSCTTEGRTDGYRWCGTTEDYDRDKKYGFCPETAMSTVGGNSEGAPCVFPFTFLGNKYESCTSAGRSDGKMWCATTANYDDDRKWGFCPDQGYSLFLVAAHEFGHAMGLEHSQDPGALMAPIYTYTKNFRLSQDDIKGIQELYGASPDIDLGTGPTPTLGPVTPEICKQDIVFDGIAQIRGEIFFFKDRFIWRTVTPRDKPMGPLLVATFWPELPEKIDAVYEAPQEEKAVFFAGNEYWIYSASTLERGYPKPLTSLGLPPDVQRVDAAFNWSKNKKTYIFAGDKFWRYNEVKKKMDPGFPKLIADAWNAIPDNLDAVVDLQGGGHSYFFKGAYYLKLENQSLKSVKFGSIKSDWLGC
The test can be described thus: In-vitro fluorescence assay of MMP-2 activity. The class given is biochemical. The conditions noted are these: recombinant human MMP-2; read-out: MMP-2 IC50.

The next test concerns the target T2, MMP-1 (Homo sapiens, UniProt P03956).
T2 sequence (P03956 100-269 limits assumed): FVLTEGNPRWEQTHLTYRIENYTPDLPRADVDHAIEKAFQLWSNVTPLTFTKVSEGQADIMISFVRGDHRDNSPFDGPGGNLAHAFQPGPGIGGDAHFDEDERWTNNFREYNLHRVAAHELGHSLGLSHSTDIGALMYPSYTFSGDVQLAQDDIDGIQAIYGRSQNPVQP

The target in another test is T3, MMP-9 (Homo sapiens, UniProt P14780).
T3 construct: Active, recombinant human MMP-9 (83 kDa) was purchased from Calbiochem (catalog #PF024); purchased Calbiochem PF024
Briefly: MMP-9 activity assay. The conditions noted are these: recombinant human MMP-9. The format is biochemical.

The next test addresses T4, MMP-14 (Homo sapiens, UniProt P50281).
T4 construct: 20 kDa; purchased Chemicon International, Inc. CC 1041
Briefly: In-vitro fluorescence assay of MMP-14 activity. The format is biochemical.

In another test the target is T5, MMP-7 (Homo sapiens, UniProt P09237).
T5 construct: Active, recombinant human MMP-7 was purchased from Calbiochem (catalog #444270; expressed in E. coli, 19 kDa); purchased Calbiochem 444270; host or cells: E. coli
T5 sequence (P09237 95-267): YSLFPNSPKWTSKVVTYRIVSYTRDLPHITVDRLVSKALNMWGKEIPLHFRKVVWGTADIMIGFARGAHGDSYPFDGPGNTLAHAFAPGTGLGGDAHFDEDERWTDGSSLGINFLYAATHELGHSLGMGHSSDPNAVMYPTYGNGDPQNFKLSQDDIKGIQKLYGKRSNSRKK
The test can be described thus: MMP-7 activity assay. The format is biochemical. As to conditions: recombinant human MMP-7.

A further test concerns the target T6, Aggrecanase-1 (Homo sapiens, UniProt O75173).
T6 sequence (O75173 213-837): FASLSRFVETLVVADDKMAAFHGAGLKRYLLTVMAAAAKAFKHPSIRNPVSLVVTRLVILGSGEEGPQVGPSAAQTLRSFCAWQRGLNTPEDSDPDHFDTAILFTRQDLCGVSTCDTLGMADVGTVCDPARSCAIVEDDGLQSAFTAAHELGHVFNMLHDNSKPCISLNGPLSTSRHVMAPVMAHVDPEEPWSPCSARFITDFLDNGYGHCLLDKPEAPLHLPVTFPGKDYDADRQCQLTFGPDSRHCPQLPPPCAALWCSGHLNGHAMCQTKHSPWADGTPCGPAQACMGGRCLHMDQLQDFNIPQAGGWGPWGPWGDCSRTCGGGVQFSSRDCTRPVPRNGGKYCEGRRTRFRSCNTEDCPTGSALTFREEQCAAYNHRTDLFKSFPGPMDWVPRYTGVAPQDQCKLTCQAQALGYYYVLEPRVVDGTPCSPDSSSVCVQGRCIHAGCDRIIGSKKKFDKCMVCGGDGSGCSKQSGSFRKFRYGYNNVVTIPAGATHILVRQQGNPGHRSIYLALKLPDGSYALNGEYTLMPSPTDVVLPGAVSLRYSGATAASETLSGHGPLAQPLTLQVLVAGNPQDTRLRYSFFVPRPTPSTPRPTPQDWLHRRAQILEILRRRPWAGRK
Briefly: Aggrecanase-1 FRET assay. The class given is biochemical. As to conditions: rAgg1, WAAG-3R substrate; read-out: AGG-1 IC50. The procedure:
h. Aggrecanase-1 FRET Assay:
The following protocol was used: • Fluorimeter was started and temperature set to 30° C., about 30 min before setting up the assay. The following reagents are used: • Buffer: 50 mM HEPES, pH 7.5, 100 mM NaCl, 5 mM CaCl2, 0.1% CHAPS, 5% glycerol. • rAgg1: 5 μg/ml (final concentration in the assay): • Substrate: WAAG-3R (MWT=1645.8, Anaspec, stored at 4° C.). Make a stock at 2 mg/ml in 100% DMSO. Measure the absorbance at 354 nm (ε=18172 M^−1 cm^−1) to determine the exact concentration. Dilute to 62.5 μM in buffer. Store unused 100% DMSO stock at −80° C. Final concentration of substrate in the assay is 25 μM. […] Make up inhibitors at 10× starting concentration in 100% DMSO. Perform serial dilutions (in duplicate) across the nunc plate in 100% DMSO; • Dilution plates: Nunc, polypropylene low binding (Nalgene) • Assay plate: Fluoronunc (Nalgene) • Fluorimeter: GeminiXS (Molecular Devices).; • The assay is performed as follows: The plates are set up so that the final column (12) is used for controls. Total reaction volume is 100 μl. Each compound is assayed in duplicate, so 4 compounds are screened per plate. • 1) Add buffer to the entire 96-well plate (30 ρl/well). • 2) Dilute rAgg1 to 25 μg/ml buffer just prior to addition on the plate. Add 20 μl/well to all wells. Mix 6 times. • 3) Add 10 μl/well of 10× inhibitors from the working plate, except column 12. Mix 6 times. […] Mix 6 times.
The reaction is monitored for 30-40 min at 30° C. λex: 340 nm and λ em: 420 nm). The fluorescence is linear during this time and the slope of the line (Vmax/sec) represents the initial reaction rate, ν. The maximal rate of cleavage of substrate is determined in the absence of inhibitor. The percent inhibition of activity in the presence of inhibitor is calculated as follows:
[formula] The IC50 was obtained by fitting the initial rate, ν, or % inhibition at each concentration of inhibitor to the following equation in Excel. y=(a−d)/(1+C/IC50)^n)+d This model describes a sigmoidal curve with an adjustable baseline, […]. y is the % inhibition or initial rate of reaction, C is the concentration of inhibitor under test. a is the limiting response as C approaches zero. […] The sign of n is positive when the response increases with increasing dose and is negative when the response decreases with increasing dose (inhibition).

For a further test, the target named is T7, MMP-13 (Homo sapiens, UniProt P45452).
T7 construct: made in house
The test can be described thus: In-vitro fluorescence assay of MMP-13 activity. The class given is biochemical. The conditions noted are these: recombinant human catalytic domain of MMP-13; read-out: MMP-13 IC50.

For the next test, the target named is T8, MMP-12 (Homo sapiens, UniProt P39900).
T8 construct: made in house
Briefly: In vitro fluorescence assay of MMP-12 activity. The format is biochemical. As to conditions: recombinant human MMP-12.

The mark [1] stands for this setting: recombinant human catalytic domain of MMP-14.

Where two headings read alike, the source gives them in different places. Where only a bound is given, the exact number is not on record here.

T3 sequence (P14780 107-707 limits assumed): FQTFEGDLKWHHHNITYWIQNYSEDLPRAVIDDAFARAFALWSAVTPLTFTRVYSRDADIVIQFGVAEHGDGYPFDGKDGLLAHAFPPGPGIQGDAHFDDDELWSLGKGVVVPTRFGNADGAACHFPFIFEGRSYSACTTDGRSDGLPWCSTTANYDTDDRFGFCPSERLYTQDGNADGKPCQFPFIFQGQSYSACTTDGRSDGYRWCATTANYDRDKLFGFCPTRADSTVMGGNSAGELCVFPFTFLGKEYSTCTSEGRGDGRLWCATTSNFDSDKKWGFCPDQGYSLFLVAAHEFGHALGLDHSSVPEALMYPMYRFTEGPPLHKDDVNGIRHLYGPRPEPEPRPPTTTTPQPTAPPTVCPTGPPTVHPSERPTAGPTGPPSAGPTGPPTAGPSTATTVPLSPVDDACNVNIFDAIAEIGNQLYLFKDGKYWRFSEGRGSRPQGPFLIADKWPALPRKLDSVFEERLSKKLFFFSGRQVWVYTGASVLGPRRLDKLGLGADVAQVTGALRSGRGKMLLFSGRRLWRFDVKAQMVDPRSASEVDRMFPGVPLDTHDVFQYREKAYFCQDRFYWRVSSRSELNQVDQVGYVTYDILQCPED
T8 sequence (P39900 106-280 limits assumed): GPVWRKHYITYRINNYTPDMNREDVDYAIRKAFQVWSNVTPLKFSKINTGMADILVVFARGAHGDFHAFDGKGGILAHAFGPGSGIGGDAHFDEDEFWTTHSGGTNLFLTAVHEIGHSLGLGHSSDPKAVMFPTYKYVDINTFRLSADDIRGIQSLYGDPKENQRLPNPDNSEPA
Protocol for MMP-12: A continuous, assay was used in which the substrate is a synthetic peptide containing a fluorescent group (7-methoxycoumarin; Mca) which is quenched by energy transfer to a 2,4-dinitrophenyl group. […] The concentration of the substrate stock was spectrophotometrically determined using the extinction coefficient at 410 nm of 7500 M^−1cm^−1. The assay buffer (pH 7.4) consisted of 50 mM Hepes, 100 mM NaCl, 5 mM CaCl2, and 0.005% Brij-35. […] The plates were then incubated at room temperature for 30 minutes. The enzymatic reactions were initiated by adding substrate to a final concentration of 20 μM and they were mixed by pipetting up and down. The final DMSO concentration in the assay was 10% and the final, total assay volume was 200 μl.
Protocol for MMP-7: (§1) A continuous assay was used in which the substrate is a synthetic peptide containing a fluorescent group (7-methoxycoumarin; Mca) that is quenched by energy transfer to a 2,4-dinitrophenyl group. […] The concentration of the substrate stock was spectrophotometrically determined using the extinction coefficient at 410 nm of 7500 M^−1cm^−1. The assay buffer (pH 7.4) consisted of 50 mM Hepes, 100 mM NaCl, 5 mM CaCl2, and 0.005% Brij-35. Each well of black polystyrene 96-well plates contained a reaction consisting of assay buffer, purified MMP (final concentration of 1.0 nM, prepared by dilution with assay buffer), and varied concentrations of inhibitor (prepared by serial dilution in DMSO in 96-well polypropylene plates). The plates were then incubated at room temperature for 30 minutes. […] The final DMSO concentration in the assay was 10% and the final, total assay volume was 200 μl. […] Plots of the inhibitor concentration vs. the initial cleavage rate were fit to the following equation in order to determine IC50 values: y=Vmax*(1−(x^n/(K^n+x^n))), whereby x=inhibitor concentration, y=initial rate, Vmax=initial rate in the absence of inhibitor, n=slope factor, and K=IC50 for the inhibition curve.
Protocol for MMP-9: as §1
Active, recombinant human MMP-9 (83 kDa) was purchased from Calbiochem (catalog #PF024).

With `CC(C)[C@H](NS(=O)(=O)c1ccc(-c2ccc(NC(=O)c3cc4ccccc4o3)cc2)cc1)C(=O)O` [Example 2, L-2-{4′-[(Benzofuran-2-carbonyl)-amino]-biphenyl-4-sulfonylamino}-3-methyl-butyric acid], the IC50 on MMP-2 is 6.5 nM; on MMP-1 it was over 3500 nM; on MMP-9, 1100 nM; against MMP-14, 2200 nM.
For the molecule `COCCCc1cccc2oc(C(=O)Nc3ccc(-c4ccc(S(=O)(=O)N[C@H](C(=O)O)C(C)C)cc4)cc3)c(C)c12` [Example 30, L-2-(4′-{[4-(3-Methoxy-propyl)-3-methyl-benzofuran-2-carbonyl]-amino}-biphenyl-4-sulfonylamino)-3-methyl-butyric acid], the IC50 was 6000 nM on MMP-7; 14000 nM on Aggrecanase-1; 4000 nM at MMP-2; 11 nM on MMP-13; over 18000 nM against MMP-1; 85 nM on MMP-12. The IC50 at MMP-9 is 1500 nM; on MMP-14 (setting [1]) it was 26200 nM.
With `CCC(C)Oc1cccc2oc(C(=O)Nc3ccc(-c4ccc(S(=O)(=O)N[C@H](C(=O)O)C(C)C)cc4)cc3)c(C)c12` (stereo partly drawn) [Example 53, L-2-{4′-[(4-sec-Butoxy-3-methyl-benzofuran-2-carbonyl)-amino]-biphenyl-4-sulfonylamino}-3-methyl-butyric acid], the IC50 on MMP-7 was 2600 nM; at MMP-2, 10000 nM; on MMP-13, 17 nM; on MMP-9 it was over 4000 nM.
For the molecule `COc1c(Br)ccc2oc(COc3ccc(-c4ccc(S(=O)(=O)N[C@@H](C(=O)O)C(C)C)cc4)cc3)c(C)c12` [Example 136, D-2-[4′-(5-Bromo-4-methoxy-3-methyl-benzofuran-2-ylmethoxy)-biphenyl-4-sulfonylamino]-3-methyl-butyricacid], the IC50 was found to be 1100 nM on MMP-7; 430 nM on Aggrecanase-1; 135 nM on MMP-2; 1.8 nM at MMP-13; 400000 nM on MMP-1; 20 nM at MMP-12. In addition, the results for the IC50 at MMP-9 and at MMP-14 (setting [1]) were over 7000 nM and 5000 nM, respectively.

As usually defined, the IC50 is the point on the concentration scale where inhibition reaches its midpoint.
